Experimental data from ChEMBL document CHEMBL3885861, “Open TG-GATES”.

Species: Rattus norvegicus
Assay: Open TG-GATES - Regimen: Daily Repeat
Type: toxicity, organism-based, Sprague-Dawley
Set-up: regimen Daily Repeat, gender Male, age 6 weeks
Conditions: in vivo, po, 0 mg/kg, route gavage, dose level Control; for APTT / Bas / Eos / Fbg / Hb / Ht / Lym / MCH / MCHC / MCV / Mono / Neu / PT / Plat / RBC / Ret / WBC: tissue Blood; for KIDNEY_L / KIDNEY_R / KIDNEY_TOTAL: tissue Kidney; for LIVER: tissue Liver; for ALP / ALT / AST / BUN / CRE / Ca / Cl / DBIL / GLC / IP / K / LDH / Na / PL / RALB / TBIL / TC / TG / TP / gamma-GTP: tissue Plasma

## COC(=O)C1=C(C)NC(C)=C(C(=O)OC)C1c1ccccc1[N+](=O)[O-] [NIFEDIPINE]
72 h, time 3 day
  TERMINAL_BW: 227.8 g
  APTT: 16.7 s
  Bas: 0.4%
  Eos: 1%
  Fbg: 313.6 mg/dL
  Hb: 13.4 g/dL
  Ht: 41.3%
  Lym: 80.2%
  MCH: 20.8 pg
  MCHC: 32.5%
  MCV: 64.2 fL
  Mono: 3.2%
  Neu: 14%
  PT: 14.5 s
  Plat: 122.9 x10_4/uL
  RBC: 643.8 x10_4/ul
  Ret: 7.5%
  WBC: 94.6 x10_2/uL
  KIDNEY_L: 1 g
  KIDNEY_R: 1 g
  KIDNEY_TOTAL: 2 g
  LIVER: 10.4 g
  ALP: 1654.8 IU/L
  ALT: 47.6 IU/L
  AST: 71.4 IU/L
  BUN: 14 mg/dL
  CRE: 0.2 mg/dL
  Ca: 11.1 mg/dL
  Cl: 106 meq/L
  DBIL: 0.014 mg/dL
  GLC: 179.2 mg/dL
  IP: 7.7 mg/dL
  K: 4.2 meq/L
  LDH: 85.4 IU/L
  Na: 144.8 meq/L
  PL: 162 mg/dL
  RALB: 2.7 g/dL
  TBIL: 0.028 mg/dL
  TC: 83.8 mg/dL
  TG: 109.2 mg/dL
  TP: 5.8 g/dL
  gamma-GTP: 1 IU/L
[…], time 7 day
  TERMINAL_BW: 262.8 g
  APTT: 16.1 s
  Bas: 0.4%
  Eos: 1.4%
  Fbg: 286.6 mg/dL
  Hb: 13.7 g/dL
  Ht: 42%
  Lym: 75.8%
  MCH: 21 pg
  MCHC: 32.7%
  MCV: 64.1 fL
  Mono: 3%
  Neu: 18.2%
  PT: 14.2 s
  Plat: 133.6 x10_4/uL
  RBC: 656.4 x10_4/ul
  Ret: 5.7%
  WBC: 100.3 x10_2/uL
  KIDNEY_L: 1 g
  KIDNEY_R: 1 g
  KIDNEY_TOTAL: 2.1 g
  LIVER: 12.1 g
  ALP: 1580.4 IU/L
  ALT: 42.6 IU/L
  AST: 68.6 IU/L
  BUN: 15.4 mg/dL
  CRE: 0.2 mg/dL
  Ca: 11 mg/dL
  Cl: 106.4 meq/L
  DBIL: 0.014 mg/dL
  GLC: 183.6 mg/dL
  IP: 7.4 mg/dL
  K: 4 meq/L
  LDH: 98.2 IU/L
  Na: 145.2 meq/L
  PL: 159.2 mg/dL
  RALB: 2.7 g/dL
  TBIL: 0.026 mg/dL
  TC: 82.4 mg/dL
  TG: 111.8 mg/dL
  TP: 5.9 g/dL
  gamma-GTP: 1 IU/L
[…], time 14 day
  TERMINAL_BW: 320 g
  APTT: 18.1 s
  Bas: 0%
  Eos: 1%
  Fbg: 320.8 mg/dL
  Hb: 14.8 g/dL
  Ht: 44.1%
  Lym: 79.2%
  MCH: 20.6 pg
  MCHC: 33.5%
  MCV: 61.3 fL
  Mono: 3%
  Neu: 15.6%
  PT: 14.2 s
  Plat: 117.8 x10_4/uL
  RBC: 720.2 x10_4/ul
  Ret: 4.2%
  WBC: 101 x10_2/uL
  KIDNEY_L: 1.2 g
  KIDNEY_R: 1.2 g
  KIDNEY_TOTAL: 2.5 g
  LIVER: 13.8 g
  ALP: 1854.8 IU/L
  ALT: 41.8 IU/L
  AST: 65 IU/L
  BUN: 16 mg/dL
  CRE: 0.2 mg/dL
  Cl: 105.6 meq/L
  DBIL: 0.012 mg/dL
  GLC: 184 mg/dL
  IP: 7.3 mg/dL
  K: 4 meq/L
  LDH: 57.8 IU/L
  Na: 144.2 meq/L
  PL: 158.8 mg/dL
  RALB: 2.8 g/dL
  TBIL: 0.024 mg/dL
  TC: 75.4 mg/dL
  TG: 150.8 mg/dL
  TP: 6 g/dL
  gamma-GTP: 1 IU/L
[…], time 28 day
  TERMINAL_BW: 416 g
  APTT: 16.7 s
  Bas: 0.4%
  Eos: 1%
  Fbg: 313.6 mg/dL
  Hb: 13.4 g/dL
  Ht: 41.3%
  Lym: 80.2%
  MCH: 20.8 pg
  MCHC: 32.5%
  MCV: 64.2 fL
  Mono: 3.2%
  Neu: 14%
  PT: 14.5 s
  Plat: 122.9 x10_4/uL
  RBC: 643.8 x10_4/ul
  Ret: 7.5%
  WBC: 94.6 x10_2/uL
  KIDNEY_L: 1.4 g
  KIDNEY_R: 1.4 g
  KIDNEY_TOTAL: 2.7 g
  LIVER: 17.4 g
  ALP: 1068.6 IU/L
  ALT: 36.2 IU/L
  AST: 63 IU/L
  BUN: 17.4 mg/dL
  CRE: 0.3 mg/dL
  Ca: 10.7 mg/dL
  Cl: 104.4 meq/L
  DBIL: 0.01 mg/dL
  GLC: 192.8 mg/dL
  IP: 6.1 mg/dL
  K: 3.9 meq/L
  LDH: 66 IU/L
  Na: 143.8 meq/L
  PL: 161.6 mg/dL
  RALB: 2.8 g/dL
  TBIL: 0.026 mg/dL
  TC: 75 mg/dL
  TG: 175.2 mg/dL
  TP: 6.3 g/dL
